Measured values published in ChEMBL document CHEMBL5236550, “Small molecule selenium-containing compounds: Recent development and therapeutic applications” (Eur J Med Chem, 2021).
In brackets after ≈: the same amount, converted by molar mass.

Assays:
SH-SY5Y = experiment: Anticancer activity against human SH-SY5Y cells assessed as cell viability incubated for 24 hrs by MTT assay relative to control; assay type: functional
[1] = test system: Encephalomyocarditis virus; experiment: Antiviral activity against Encephalomyocarditis virus infected in A549 cells assessed as viral growth inhibition incubated for 1 hrs; assay type: functional, organism-based; conditions: Cardiovirus A, A549, 1 h
Human alphaherpesvirus 1 = experiment: Antiviral activity against Herpes simplex virus 1infected in A549 cells assessed as viral growth inhibition incubated for 1 hrs; assay type: functional
Pichia kudriavzevii = experiment: Antifungal activity against Candida krusei assessed as fungal growth inhibition incubated for 24 to 48 hrs by microdilution method; assay type: functional; conditions: time 24-48 hrs
Carbonic anhydrase 2 = Carbonic anhydrase 2 (Homo sapiens, UniProt P00918); experiment: Inhibition of human carbonic anhydrase 2 assessed as inhibition constant
Carbonic anhydrase 1 = Carbonic anhydrase 1 (Homo sapiens, UniProt P00915); experiment: Inhibition of human carbonic anhydrase 1 assessed as inhibition constant
[2] = Anticancer activity against human PMNL assessed as cell growth inhibition; assay type: functional, cell-based
SW-620 = experiment: Anticancer activity against human SW620 cells assessed as cell growth inhibition incubated for 72 hrs by MTT assay; assay type: functional, cell-based; conditions: SW-620, 72 h
Hs68 = experiment: Anticancer activity against human Hs68 cells assessed as cell growth inhibition incubated for 72 hrs by MTT assay; assay type: functional, cell-based; conditions: Hs68, 72 h
A-375 = experiment: Anticancer activity against human A-375 cells assessed as cell growth inhibition incubated for 72 hrs by MTT assay; assay type: functional, cell-based; conditions: A-375, 72 h
MCF7 [3] = experiment: Anticancer activity against human MCF7 cells assessed as cell growth inhibition incubated for 72 hrs by MTT assay; assay type: functional, cell-based; conditions: MCF7, 72 h
WM-115 = experiment: Anticancer activity against human WM-115 cells assessed as cell growth inhibition incubated for 72 hrs by MTT assay; assay type: functional
MDA-MB-231 = experiment: Anticancer activity against human MDA-MB-231 cells assessed as cell growth inhibition incubated for 72 hrs by MTT assay; assay type: functional, cell-based; conditions: MDA-MB-231, 72 h
HeLa [4] = experiment: Anticancer activity against human HeLa cells assessed as cell growth inhibition incubated for 48 hrs; assay type: functional, cell-based
HepG2 = experiment: Anticancer activity against human HepG2 cells assessed as cell growth inhibition incubated for 48 hrs; assay type: functional, cell-based; conditions: HepG2, 48 h
Candida albicans [5] = experiment: Antifungal activity against Candida albicans ATC90028 assessed as […] growth inhibition; assay type: functional
Candida albicans [6] = experiment: Antifungal activity against Candida albicans ATC90028 assessed as zone of inhibition; assay type: functional
UACC-903 = experiment: Antitumor activity against human UACC-903 cells xenografted with mouse assessed as reduction in tumor volume at 0.127 uM, ip administered alternate days for 4 week relative to control; assay type: functional; set-up: scale not given: the % may be the effect or the level left; conditions: time 4 weeks
[7] = Antitumor activity against human 1205Lu cells xenografted with mouse assessed as reduction in tumor volume at 0.127 uM, ip administered alternate days for 4 week relative to control; assay type: functional; set-up: scale not given: the % may be the effect or the level left; conditions: time 4 weeks
[8] = Anticancer activity against human WM35 cells assessed as cell growth inhibition incubated for 72 hrs by MTS assay; assay type: functional, cell-based; conditions: WM35, 72 h, pooled result: one value given for 4 cell lines, strains, targets or settings
Calu-1 = experiment: Anticancer activity against human HTB-54 cells assessed as cell growth inhibition incubated for 48 hrs by MTT assay; assay type: functional, cell-based; conditions: Calu-1, 48 h
NCI-H1299 = experiment: Anticancer activity against human H1299 cells assessed as cell growth inhibition incubated for 48 hrs by MTT assay; assay type: functional, cell-based; conditions: NCI-H1299, 48 h
MCF7 [9] = experiment: Anticancer activity against human MCF7 cells assessed as cell growth inhibition incubated for 48 hrs by MTT assay; assay type: functional, cell-based; conditions: MCF7, 48 h
EJ = experiment: Anticancer activity against human EJ cells assessed as cell growth inhibition incubated for 72 hrs by MTT assay; assay type: functional, cell-based
Plasmodium falciparum = experiment: […] inhibition incubated for 72 hrs by light microscopic analysis; assay type: functional, organism-based; conditions: K-1, 72 h
MCF7 [10] = experiment: Anticancer activity against human MCF7 cells assessed as cell growth inhibition; assay type: functional, cell-based
PANC-1 = experiment: Anticancer activity against human PANC-1 cells assessed as cell growth inhibition by crystal violet staining based assay; assay type: functional
[11] = Anticancer activity against human Ela-myc- cells assessed as cell growth inhibition by crystal violet staining based assay; assay type: functional; conditions: Ela-myc-1 cell
PC-3 [12] = experiment: Anticancer activity against human PC-3 cells assessed as cell growth incubation incubated for 72 hrs by MTT assay; assay type: functional, cell-based; conditions: PC-3, 72 h
HeLa [13] = experiment: Anticancer activity against human HeLa cells assessed as cell growth inhibition incubated for 72 hrs by MTT assay; assay type: functional, cell-based
[14] = Anticancer activity against human SWO-38 cells assessed as cell growth inhibition incubated for 48 hrs by MTT assay; assay type: functional, cell-based; conditions: SWO-38, 48 h
Caco-2 = experiment: Anticancer activity against human Caco-2 cells assessed as cell growth inhibition measured upto 72 hrs by MTT assay; assay type: functional, cell-based; conditions: Caco-2, 72 h
BGC-823 = experiment: Anticancer activity against human BGC-823 cells assessed as cell growth inhibition measured upto 72 hrs by MTT assay; assay type: functional, cell-based; conditions: BGC-823, 72 h
PC-3 [15] = experiment: Anticancer activity against human PC-3 cells assessed as cell growth inhibition measured upto 72 hrs by MTT assay; assay type: functional, cell-based; conditions: PC-3, 72 h
MCF7 [16] = experiment: Anticancer activity against human MCF7 cells assessed as cell growth inhibition measured upto 72 hrs by MTT assay; assay type: functional, cell-based; conditions: MCF7, 72 h

Carbonic anhydrase 1, sequence (P00915 whole entry): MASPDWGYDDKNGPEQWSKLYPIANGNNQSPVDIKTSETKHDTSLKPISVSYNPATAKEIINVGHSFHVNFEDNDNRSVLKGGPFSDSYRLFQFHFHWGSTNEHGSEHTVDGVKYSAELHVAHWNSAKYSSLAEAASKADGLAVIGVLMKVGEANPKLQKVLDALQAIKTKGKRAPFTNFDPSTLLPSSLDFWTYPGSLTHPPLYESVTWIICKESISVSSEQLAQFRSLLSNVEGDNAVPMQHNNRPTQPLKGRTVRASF

Question: Which Activity (SH-SY5Y) does the source give for C=CCn1[se]c2ccccc2c1=O here?
Answer: Its Activity is 86%.

Question: With CC(=O)n1[se]c2ccccc2c1=O as the molecule, how does the IC50 [1] read?
Answer: The IC50 was 6 µg/mL (≈ 25 µM).

Question: What about the MIC (Human alphaherpesvirus 1) of the same molecule?
Answer: The MIC was 4 µg/mL (≈ 16.7 µM).

Question: Which MIC (Pichia kudriavzevii) does the source give for Clc1ccc(-c2c[se]c(NN=C3CCSCC3)n2)cc1 here?
Answer: The MIC was 3.91 µg/mL (≈ 10.5 µM).

Question: Which results are given for [Se]=P(c1ccccn1)(c1ccccn1)c1ccccn1?
Answer: Ki (Carbonic anhydrase 2): 0.0537 µM; Ki (Carbonic anhydrase 1): 0.0563 µM

Question: With CN(C)C(N)=[Se] as the molecule, how does the IC50 [2] read?
Answer: The IC50 was 6.8 µM.

Question: Which results are given for C[Se]C[C@H](N)C(=O)O [METHYLSELENOCYSTEINE]?
Answer: IC50 (SW-620): 633 µM; IC50 (Hs68): 50 µM; IC50 (A-375): 54 µM; IC50 (MCF7 [3]): 193 µM

Question: Which IC5 (WM-115) does the source give for N#C[Se]CCCCCC(=O)Nc1ccccc1 here?
Answer: Its IC5 is 0.8 µM.

Question: What does the source list for Clc1ccc2nc(-c3ccc4n[se]nc4c3)[nH]c2c1?
Answer: IC50 (MDA-MB-231): 2.1 µM; IC50 (MCF7 [3]): 26.3 µM

Question: Which IC50 (HeLa [4]) does the source give for CN(C)c1ccc(/C=C/c2c3ccccc3c(/C=C/c3ccc(OCCCCCC[Se][Se]CCCCCCOc4ccc(/C=C/c5c6ccccc6c(/C=C/c6ccc(N(C)C)cc6)c6ccccc56)cc4)cc3)c3ccccc23)cc1 here?
Answer: Its IC50 is 3.96 µM.

Question: And the IC50 (HepG2)?
Answer: Its IC50 is 4.45 µM.

Question: For Clc1ccccc1C(c1ccccc1)(c1ccccc1)n1ccnc1 [CLOTRIMAZOLE], which MIC (Candida albicans [5]) is on record?
Answer: Its MIC is 6.25 µg/mL (≈ 18.1 µM).

Question: What about the “inhibition zone (IZ)” value (Candida albicans [6]) of the same molecule?
Answer: Its value is 28 mm.

Question: Which Activity (UACC-903) does the source give for NC(CCC(=O)NC(CS[Se]Cc1cc(-c2ccccc2)n(-c2ccc(S(N)(=O)=O)cc2)n1)C(=O)NCC(=O)O)C(=O)O (centres undefined) here?
Answer: The Activity was 70%.

Question: What about the Activity [7] of the same molecule?
Answer: The Activity was 70%.

Question: And the IC50 [8]?
Answer: The IC50 was 7.66 µM.

Question: Which IC50 (Calu-1) does the source give for Cc1ccc(NC(=[Se])NC(=O)c2ccc3c(c2)OCO3)cc1 here?
Answer: The IC50 was 5.9 µM.

Question: And the IC50 (NCI-H1299)?
Answer: Its IC50 is 1.5 µM.

Question: Which IC50 (MCF7 [9]) does the source give for CCNCc1ccccc1[Se][Se]c1ccccc1CNCC here?
Answer: The IC50 was 15 µM.

Question: With O=C(C[C@@H](c1ccc(Cl)cc1)[C@@H]1CCCc2[se]nnc21)c1ccc(Cl)cc1 as the molecule, how does the MIC (Candida albicans [5]) read?
Answer: Its MIC is 12.5 µg/mL (≈ 26.9 µM).

Question: And the “inhibition zone (IZ)” value (Candida albicans [6])?
Answer: The value was 15 mm.

Question: For Ic1ccc(-c2c[se]c(NN=C3CCSCC3)n2)cc1, which MIC (Pichia kudriavzevii) is on record?
Answer: The MIC was 0.98 µg/mL (≈ 2.12 µM).

Question: For NC(=[Se])N1CCCC1, which IC50 [2] is on record?
Answer: The IC50 was 6.5 µM.

Question: For COc1ccc(-c2nc3ccc(-c4ccc5n[se]nc5c4)cc3[nH]2)cc1, which IC50 (EJ) is on record?
Answer: Its IC50 is 1.48 µM.

Question: Which results are given for C[Se](=O)O [METHYLSELENINIC ACID]?
Answer: IC50 (Plasmodium falciparum): 10 µM; IC50 (MCF7 [10]): 2 µM; IC50 (PANC-1): 2.6 µM; IC50 [11]: 3.2 µM

Question: For FC(F)(F)c1ccc(-c2c[se]c(NN=C3CCSCC3)n2)cc1, which MIC (Pichia kudriavzevii) is on record?
Answer: The MIC was 0.98 µg/mL (≈ 2.42 µM).

Question: For COc1ccc(-c2c[se]c(NN=C3CCSCC3)n2)cc1, which MIC (Pichia kudriavzevii) is on record?
Answer: Its MIC is 3.91 µg/mL (≈ 10.7 µM).

Question: For N#Cc1ccc(C(=O)[Se]CC(=O)O)cc1, which IC50 (PC-3 [12]) is on record?
Answer: Its IC50 is 10 µM.

Question: Which IC50 [1] does the source give for O=c1c2ccccc2[se]n1Cc1ccccc1 here?
Answer: Its IC50 is 6 µg/mL (≈ 20.8 µM).

Question: What about the MIC (Human alphaherpesvirus 1) of the same molecule?
Answer: Its MIC is 2 µg/mL (≈ 6.94 µM).

Question: For O=[N+]([O-])c1ccc2n[se]nc2c1, which IC50 (HeLa [13]) is on record?
Answer: Its IC50 is 4.8 µM.

Question: For Nc1ccc(-c2ccc3n[se]nc3c2)cc1N, which IC50 [14] is on record?
Answer: The IC50 was 22.5 µM.

Question: Which IC50 (Caco-2) does the source give for N#C[Se]CCCNC(=O)c1ccccc1Nc1cccc(C(F)(F)F)c1 here?
Answer: The IC50 was 1.9 µM.

Question: And the IC50 (BGC-823)?
Answer: The IC50 was 1.9 µM.

Question: What about the IC50 (PC-3 [15]) of the same molecule?
Answer: The IC50 was 1.9 µM.

Question: And the IC50 (MCF7 [16])?
Answer: The IC50 was 1.9 µM.
